In patent publication US20070009571A1, “Novel haptotactic peptides” (Hadasit Medical Research Services & Development Ltd., priority 1998, published 2007):
No end group written: not given here.

Columns and labels:
EC cells (BAEC) = assay: FACS analysis of binding of FITC-labeled peptides; type: cell-based, bovine; settings: 10 μg/ml or 100 μg/ml, medium with 0.1% albumin
Method: EC and HF cell monolayers were washed and then incubated with trypsin-versene. Cells were then washed with growth medium and resuspended in medium with 0.1% albumin. FITC-labeled peptide-Cβ (SEQ ID NO:1) was incubated with 5×10^5 EC cells (10 μg/ml or 100 μg/ml) or with 2.5×10^5 HF cells (100 μg/ml) in medium with 0.1% albumin. FITC-labeled peptide-CαE (SEQ ID NO:3) and Cα (SEQ ID NO:4) (10 μg/ml) was incubated with 5×10^5 EC cells in medium with 0.1% albumin. Cells were then washed with PBS and 1% albumin. Cells were resuspended in PBS and 1% albumin and then filtered through a mesh for FACS analysis, in which the FITC tluorescence was measured for each cell.
The control is without FITC-labeled peptide (background fluorescence).
In competition experiments, cells were incubated with various concentrations of unlabeled Cβ (SEQ ID NO:1) for 15 mins, an aliquot of Cβ^FITC (4 mM) was added and the sample was subjected to FACS analysis. […] The Cβ^FITC (SEQ ID NO:1) uptake experiments best fitted a linear-quadratic curve-fit.

EC (BAEC) = assay: Uptake of FITC-peptides by fluorescence microscopy; type: cell-based, bovine; settings: 100 μg/ml, 30 min and 60 min
Method: (§1) The cells examined were grown in 6-well plates on cover slips to reach near confluence. At the time of examination, the cover slips were inverted and put on a microscope slide supported by 2 thin spacers so that a thin gap (˜2 mm) was left between the cells on the coverslip and the slide. This was filled with culture medium. […] At different time points, medium was replaced with fresh medium and the fluorescence was viewed and photographed, using an Olympus fluorescent microscope system.
(§2) Accumulation of the FITC-peptide in the cytoplasm and around the nucleus was clearly observed. […] After a longer exposure of more than 1 hour or with fixed cells, accumulation of the FITC-peptide in the cytoplasm and around the nucleus was clearly observed (data not shown). In most cases, the fluorescence became concentrated in discrete cytoplasmic vesicles.

human fibroblasts (HF) = assay: Uptake of FITC-peptides by fluorescence microscopy; type: cell-based; parameters: binding and internalization of dissolved FITC-peptide, fluorescent microscopy: dose or concentration left out as unconfirmed
Method: as §1, §2

- binding and internalization of dissolved FITC-peptide, fluorescent microscopy (EC (BAEC)): binding and internalization
- binding and internalization of dissolved FITC-peptide, fluorescent microscopy (human fibroblasts (HF); HF, 30 min and 60 min): binding and internalization
Substance: FITC-CαE: FITC-labeled peptide CαE (SEQ ID NO:3) (RGADYSLRAVRMKIRPLVTQ; not fully specified (N-terminus); also: FITC label, position not given here)
- binding/uptake of FITC-labeled peptide by FACS, in words (EC cells (BAEC)): taken up by cells
- uptake of FITC-peptide by fluoro-microscopy (human fibroblasts (HF); 10 μM, human fibroblasts): uptake
